The target of the assay is CHO-CHOP luciferase reporter, UPR activation, luminescence. Kind of assay: activators of PERK-eIF2a-CHOP UPR arm, confirmation, CHO-CHOP cells, luciferase luminescence (AID 489024).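 Further: compounds added alone to reporter cells with no tunicamycin stress co-treatment.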

In PubChem BioAssay AID489024 (Sanford-Burnham Center for Chemical Genomics, 2010) one finds EC50 data, which are given here for 25 compounds.

The source made the active and inactive calls.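 How the source made its calls: active means compounds whose mean EC50, the dose giving half the maximal reporter activation, is at or below a set limit; inactive means the rest.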

As to `CCOC(=O)C(=CNc1nc(-c2ccccc2)c(C(=O)Nc2ccc(-c3ccccc3)cc2)s1)C(=O)OCC`, the EC50 entry is “inactive”. Take `Cc1ccc2[nH]cc(C(=O)CCl)c2c1`: the EC50 was 7.64 µM.

With `N#CC1(C#N)COC23CCCCC2C1(C#N)C(=N)O3` (stereo not given), the EC50 is 19.3 µM. Regarding `COC(=O)c1ccc(COc2ccccc2/C=C(\C#N)C(=O)Nc2c(C)cccc2C)cc1`, the EC50 is 11.8 µM.

On to `CN1C(=O)/C(=C/c2cccn2-c2ccc3ccccc3c2)C(=O)NC1=S`, for which the EC50 is 11.7 µM. In the case of `C[C@@H]1CN([C@H](C)CO)C(=O)c2cc(NC(=O)Nc3ccc(C(F)(F)F)cc3)ccc2O[C@H]1CN(C)Cc1ccc(Cl)c(Cl)c1` it was > 80 µM (inactive). For `O=C(NC1CCCC1)C(c1ccc(F)cc1)N(Cc1ccc(F)cc1)C(=O)CCl` (stereo not given), the EC50 is 9.26 µM. For the compound `O=C(N/N=C/c1cccc([N+](=O)[O-])c1)c1cc2c(ccc3ccccc32)o1`, the EC50 was > 80 µM (inactive). Regarding `CCOC(=O)c1cc(-c2ccc(/C=C3/C(=O)N(c4ccc(C(=O)O)cc4)N=C3C)o2)ccc1Cl`, the EC50 was 10.8 µM. Turning to `COc1ccc(-c2cc(C(F)(F)F)nc(S(C)(=O)=O)n2)cc1OC`, the EC50 is 9.31 µM.

As to `O=c1cc(C(Cl)(Cl)Cl)oc2c1ccc1ccccc12`, the EC50 was > 80 µM (inactive).

Take `CCOc1cc(C=C(C(=O)OC)C(=O)OC)ccc1OCc1ccc([N+](=O)[O-])cc1`: the EC50 is 6.82 µM. For the compound `CCc1ccc2nc(N(CCCN(C)C)C(=O)c3ccc(S(=O)(=O)N4CCc5ccccc5C4)cc3)sc2c1`, the EC50 was 7.12 µM. In the case of `Cc1cc(C(=O)CCl)c(C)n1Cc1ccco1`, the EC50 is 7.35 µM.

`CC1=C/C(=N\OC(=O)/C=C/c2ccccc2)C(C)=CC1=O`: the EC50 was > 80 µM (inactive). In the case of `CCCCCC(=O)Nc1ccc(C(=O)N/N=C/c2ccc([N+](=O)[O-])cc2)cc1`, the EC50 entry was “inactive”.

Consider `COc1ccc(N=c2oc3c(OC)cccc3cc2C(=O)NCc2ccco2)c(OC)c1`, for which the EC50 entry is “inactive”. On to `O=C(/C=C/c1ccc([N+](=O)[O-])cc1)/C=C/c1ccco1`, for which the EC50 is 6.61 µM. In the case of `Brc1ccc(-c2ccc(/C=N/Nc3nncc(-c4ccccc4)n3)o2)cc1`, the EC50 was 19 µM. With `CCOc1cccc(C(=O)Nc2cccc(-c3nnc(-c4ccc(C)cc4)o3)c2)c1`, the EC50 was > 80 µM (inactive). For the compound `C/C(=N\NC(=O)COc1ccccc1-c1ccccc1)c1ccccn1`, the EC50 is 6.49 µM.

As for `COc1ccccc1-c1cc(C(F)(F)F)nc(S(=O)(=O)CCCC(=O)N2CCCCC2C)n1` (stereo not given), the EC50 is 7.68 µM. As to `Cc1cc(C(=O)Cn2ncc(Cl)c(Cl)c2=O)c(C)n1CC(F)(F)F`, the EC50 is 4.15 µM.

As to `N#CC12COC3(CCCCC3C1(C#N)C#N)OC2=N` (stereo not given), the EC50 is > 80 µM (inactive). Regarding `Cc1ccc(Nc2nc(-c3ccc(O)c(O)c3)cs2)nc1`, the EC50 was 1.56 µM.
